Test results: patent US9528112B2, “Composition comprising material for inhibiting SCF or receptor thereof for treating or preventing diseases associated with vascular permeability” (AJOU UNIVERSITY INDUSTRY-ACADEMIC COOPERATION FOUNDATION, priority 2012, dated 2016)

Columns and labels:
[1] = tested on: vascular endothelial cells; experiment: Vascular endothelial cell permeability with SCF (transwell, FITC-dextran); format: cell-based; settings: SCF 10, 20 and 50 ng/ml for 1 hour; FITC-conjugated dextran 1 mg/ml, 30 minutes; FIG. 1A
Method: Vascular endothelial cells were loaded in the upper chamber of 12 well transwell filter (Corning Costar), followed by culture for 48 hours. The medium was replaced with the endothelical basal medium supplemented with 1% FBS, followed by further culture for 3 hours. SCF (R&D Systems, Minneapolis, Minn., USA) was treated thereto at different concentrations (10, 20, and 50 ng/ml) for 1 hour, followed by the treatment with FITC-conjugated dextran (fluorescein isothiocyanate-dextran) (1 mg/ml). 30 minutes later, the culture fluid was taken from the lower chamber, followed by the measurement with a fluorophotometer.

[2] = tested on: vascular endothelial cells; experiment: C-Kit dependent permeability of vascular endothelial cells with SCF (siRNA, transwell, FITC-dextran); format: cell-based; settings: SCF 20 ng/ml; FITC-conjugated dextran; FIG. 1B
Method: Vascular endothelial cells were loaded in 60 mm plate. The control siRNA 5′-[…]-3′ (SEQ. ID. NO: 1) and the C-Kit siRNAs 5′-UCAUUCUUGAUGUCUCUGG-3′ (SEQ. ID. NO: 2); 5′-UUUGAGUUCAGACAUGAGG-3′ (SEQ. ID. NO: 3); 5′-UCUUAUAAAGUGCAGCUUC-3′ (SEQ. ID. NO: 4); and 5′-UACAAUGCCAUUCUGAAGC-3′ (SEQ. ID. NO: 5) were introduced in the cells by using lipofectamin. 24 hours later, the endothelial cells were transferred into the upper chamber of 12 well transwell filter (Corning Costar), followed by culture for 24 hours. The medium was replaced with the endothelical basal medium supplemented with 1% FBS, followed by further culture for 3 hours. SCF was treated thereto at the concentration of 20 ng/ml, followed by the treatment with FITC-conjugated dextran (1 mg/ml). 30 minutes later, the culture fluid was taken from the lower chamber, followed by the measurement with a fluorophotometer.

[3] = tested on: C-Kit and Akt-eNOS; experiment: Intracellular signaling pathway of vascular endothelial cells with SCF (Western blotting); format: cell-based; settings: SCF 20 ng/ml, cells harvested over time, FIG. 1C
Method: Vascular endothelial cells were loaded in 60 mm plate, followed by culture for 24 hours. The medium was replaced with the endothelical basal medium supplemented with 1% FBS, followed by further culture for 6 hours. SCF (20 ng/ml) was treated thereto and the cells were harvested over the time, followed by Western blotting.

[4] = tested on: NO (nitric oxide) in vascular endothelial cells; experiment: Generation of NO in vascular endothelial cells induced by SCF; format: cell-based; settings: SCF 20 ng/ml; culture supernatant collected over time; FIG. 2A
Method: Vascular endothelial cells were cultured in 12 well plate for 24 hours. The medium was replaced with the endothelial basal medium supplemented with 1% FBS, which was then treated with SCF (20 ng/ml). The culture fluid was collected over the time, followed by centrifugation. The level of NO (nitric oxide) in the supernatant was measured (Total No/Nitrite/Nitrate Assay Kit).

[5] = tested on: vascular endothelial cells; experiment: eNOS dependent increase of vascular endothelial cell permeability by SCF (L-NAME, transwell); format: cell-based; settings: SCF 20 ng/ml for 1 hour; FIG. 2B
Method: Vascular endothelial cells were loaded in the upper chamber of 12 well transwell filter (Corning Costar), followed by culture for 48 hours. The medium was replaced with the endothelical basal medium supplemented with 1% FBS, followed by further culture for 3 hours. L-NAME, the eNOS inhibitor, was pretreated (1 mM) to the cells for 30 minutes and then SCF (R&D Systems, Minneapolis, Minn., USA) was treated (20 ng/ml) thereto for 1 hour. FITC-conjugated dextran (fluorescein isothiocyanate-dextran) was also treated (1 mg/ml) thereto. 30 minutes later, the culture fluid was taken from the lower chamber, followed by the measurement with a fluorophotometer.

[6] = tested on: VE-cadherin; experiment: VE-cadherin endocytosis of vascular endothelial cells (immunostaining); format: cell-based; settings: SCF 20 ng/ml or VEGF 50 ng/ml, 37° C., 30 minutes; for expression of VE-cadherin on the cell surface: FIG. 2C; for endocytosis of VE-cadherin: acid buffer wash, FIG. 2D
Method: Vascular endothelial cells were cultured in 8 well chamber slide (Lab-Tek) for 48 hours. The medium was replaced with the endothelical basal medium supplemented with 1% FBS, followed by culture for 16 hours. The cells were treated with VE-cadherin antibody (R&D Systems, Minneapolis, Minn., USA) at 4° C. for 1 hour. SCF (20 ng/ml) and VEGF (50 ng/ml) (R&D Systems, Minneapolis, Minn., USA) were added thereto at 37° C. for 30 minutes to introduce VE-cadherin into the cells. To observe VE-cadherin on the cell surface, fixation was performed with 4% PFA, followed by immunostaining. To observe VE-cadherin in the inside of the cells migrated by SCF and VEGF mediated endocytosis, VE-cadherin on the cell surface was first removed by using an acid buffer (pH 2.7) and then the cells were fixed with 4% PFA, followed by immunostaining. Then, observation under a fluorescence microscope was performed.

[7] = tested on: C57/BL mouse; experiment: Vascular permeability in mouse subcutaneous tissue (Evans blue dye, back skin, OD620); format: in vivo; settings: SCF injected intradermally; skin collected after 20 minutes; FIG. 3A, 3B
Method: Evans blue dye […] was injected intravenously in the tail of C57/BL mouse. 10 minutes later, SCF and SCF receptor inhibiting antibody (anti-cKit IgG: Monoclonal anti-SCF receptor neutralization antibody: R&D Systems, Minneapolis, Minn., USA) were injected intradermally on the back of the mouse. 20 minutes later, the back skin of the mouse was collected. The region where Evans blue dye was penetrated through tissues was photographed. The skin was fixed in formamide, which stood at room temperature for 4 days. Then, OD620 was measured by using a spectrophotometer.

[8] = tested on: mouse retinal vessels; experiment: Angiography of mouse retinal vessels (FITC-dextran, flat mount); format: in vivo; settings: SCF injected in the retina; 24 hours; FIG. 4A, 4B
Method: SCF and SCF receptor inhibiting antibody were injected in the retina of C57/BL6 mouse. 24 hours later, the mouse was anesthetized and then intracardiac FITC-dextran injection was performed in order to let the fluorescein flow through blood. 30 minutes later, the retina of the mouse was extracted and observed under a fluorescence microscope after flat mounting.

| Substance | permeability of vascular endothelial cells [1] | permeability of the endothelial cells [2] | phosphorylation of C-Kit and Akt-eNOS [3] | level of NO [4] | permeability of endothelial cells [5] | expression of VE-cadherin on the cell surface [6] | endocytosis of VE-cadherin [6] | vascular permeability of the mouse (Evans blue leakage in back skin) [7] | retinal vessel permeability [8] |
| --- | --- | --- | --- | --- | --- | --- | --- | --- | --- |
| SCF: cytokine binding to C-Kit (CD117); R&D Systems | increased by the treatment of SCF dose-dependently | increased | induced the phosphorylation | increased | increased | reduced | induced | increased | increased |
| VEGF |  |  |  |  |  | decreased | increased |  |  |
